Test results from article PMC3951181, “Rosamines Targeting the Cancer Oxidative Phosphorylation Pathway” (PLoS ONE, 2014).

Assays:
[1] = test system: panel of solid human tumor cell lines (MCF-7, HCT-116, HSC-2, HK-1); experiment: MTT cell viability assay, panel of cancer cell lines; format: cell-based; details: mean over MCF-7, HCT-116, HSC-2, HK-1
Method: (§1) MCF-7 breast carcinoma and HCT-116 colon carcinoma cell lines were obtained from American Tissue Culture Collection (Virginia, USA) and maintained in RPMI 1640 medium supplemented with 10% FBS. HSC-2 oral cavity human squamous carcinoma cells were obtained from Health Science Research Resources Bank (Japan). HK-1, a previously characterized nasopharyngeal squamous carcinoma cells is a gift by Prof. Wong Y.C. from the University of Hong Kong. Both cell lines were grown in MEM medium supplemented with 10% FBS. For cell viability assay, cells at 4000 cells/well in 80 µl of medium were inoculated in 96-well plates and were allowed to adhere overnight. Cells were then treated with each compound at concentrations ranging from 0.001–10 µM giving the final volume of 100 µl in each well. At the end of incubation period, 15 µl of 5.0 mg/ml MTT in phosphate buffered saline (PBS) was added and incubated for 4 h. Medium and excessive MTT were aspirated and the resulting formazan was solubilized with 100 µl of dimethyl sulfoxide. Absorbance was read at 570 nm with SpectraMax M4 microplate spectrophotometer (Molecular Devices, CA).
(§2) The in vitro antitumor activity of rosamines was assessed using a 48 h endpoint cell viability methylthiazolyldiphenyl-tetrazolium bromide (MTT) assay against a panel of solid human tumor cell lines including breast carcinoma (MCF-7), colon carcinoma (HCT-116), oral squamous cell carcinoma (HSC-2) and nasopharyngeal carcinoma (HK-1). […] Within the halide series, cytotoxicities increase in the following order 4>3>[…] (Cl>Br>I), although not statistically significant (P>0.05).

[2] = test system: HSC-2 oral cavity human squamous carcinoma cells; experiment: MTT cell viability assay, 48 h; format: cell-based; details: 48 h post-treatment, mean ± SD
Method: as §1, §2

MCF-7 breast carcinoma = experiment: MTT cell viability assay, 48 h; format: cell-based; details: Homo sapiens, MCF7, 48 h post-treatment, mean ± SD
Method: as §1, §2

[3] = test system: HK-1 nasopharyngeal squamous carcinoma cells; experiment: MTT cell viability assay, 48 h; format: cell-based; details: Homo sapiens, 48 h post-treatment, mean ± SD
Method: as §1, §2

HCT-116 colon carcinoma = experiment: MTT cell viability assay, 48 h; format: cell-based; details: Homo sapiens, 48 h post-treatment, mean ± SD
Method: as §1, §2

Complex I = experiment: Immunocapture ELISA microplate enzyme activity assay; format: biochemical; details: mouse liver mitochondria extract; 0.01–10 µM
Complex IV = Complex IV (Mus musculus, UniProt P00397+P00405+P00416); experiment: as above; details: read-out: IC50 Complex IV activity; mouse liver mitochondria extract; 0.01–10 µM
Method: Functional mitochondria were isolated from mouse liver by differential centrifugation method [14]. Briefly, a mouse (∼30 g) was starved overnight before sacrificed by cervical dislocation. The liver was harvested promptly and rinsed with ice-cold mitochondria isolation buffer (10 mM Tris-MOPS, 1 mM EGTA/Tris, 0.2 M sucrose, pH 7.4) until blood-free. The liver was then cut into small pieces in a beaker using scissors while keeping in an ice-bath. The buffer was replaced with 5 ml of fresh isolation buffer and the liver was homogenized with a Polytron probe (Ultra-Turrax T8, Ika-Werke, Germany) until smooth. The homogenate was centrifuged at 1000 g for 15 min at 4°C. The pellet was discarded and the supernatant was centrifuged at 12000 g for 15 min at 4°C to pellet the mitochondria. The mitochondria were washed twice by resuspending in 4 volumes of isolation buffer containing 1× protease cocktail inhibitor. The concentration of the mitochondrial protein was determined using the Bradford (Biorad protein assay) method. […]
In general, plate pre-coated with appropriate immunocapture antibody was incubated with mitochondria extract at recommended concentration to allow immobilization of their respective complexes. Complexes activity was measured by addition of substrates solution mix provided by the kit and compound was added at concentration ranging from 0.01–10 µM in triplicate. […]

[4] = test system: panel of solid human tumor cell lines (MCF-7, HCT-116, HSC-2, HK-1); parameters: method as in PMID 19387338; details: anticancer activity in cellular assays; previous study; cited from earlier work
ATP synthase = ATP synthase (Mus musculus, UniProt P56480+Q03265); experiment: Immunocapture ELISA microplate enzyme activity assay; details: read-out: IC50 ATP synthase activity; mouse liver mitochondria extract; 0.01–10 µM
Complex II = Complex II (Mus musculus, UniProt Q8K2B3+Q9CQA3+Q9CXV1+Q9CZB0); experiment: as above; format: biochemical; details: mouse liver mitochondria extract; 0.01–10 µM
Sequence of Complex II (Q8K2B3 43-664): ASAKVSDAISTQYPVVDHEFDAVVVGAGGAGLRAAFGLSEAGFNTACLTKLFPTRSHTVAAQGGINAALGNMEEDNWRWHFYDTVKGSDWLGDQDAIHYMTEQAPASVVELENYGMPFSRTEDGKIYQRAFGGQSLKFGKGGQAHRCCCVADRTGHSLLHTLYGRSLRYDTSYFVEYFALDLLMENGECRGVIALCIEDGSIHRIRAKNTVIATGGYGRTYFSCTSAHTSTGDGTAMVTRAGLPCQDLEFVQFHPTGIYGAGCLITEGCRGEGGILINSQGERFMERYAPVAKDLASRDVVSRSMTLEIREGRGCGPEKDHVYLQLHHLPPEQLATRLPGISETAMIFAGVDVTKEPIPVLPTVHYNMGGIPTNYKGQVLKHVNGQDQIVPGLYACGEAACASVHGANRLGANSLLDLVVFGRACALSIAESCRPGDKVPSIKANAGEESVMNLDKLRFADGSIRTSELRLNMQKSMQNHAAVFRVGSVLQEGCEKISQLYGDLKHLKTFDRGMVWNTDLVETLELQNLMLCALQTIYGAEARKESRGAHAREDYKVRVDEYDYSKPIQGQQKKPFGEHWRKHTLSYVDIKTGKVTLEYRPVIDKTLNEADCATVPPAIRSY
Sequence of Complex II (Q9CQA3 31-282): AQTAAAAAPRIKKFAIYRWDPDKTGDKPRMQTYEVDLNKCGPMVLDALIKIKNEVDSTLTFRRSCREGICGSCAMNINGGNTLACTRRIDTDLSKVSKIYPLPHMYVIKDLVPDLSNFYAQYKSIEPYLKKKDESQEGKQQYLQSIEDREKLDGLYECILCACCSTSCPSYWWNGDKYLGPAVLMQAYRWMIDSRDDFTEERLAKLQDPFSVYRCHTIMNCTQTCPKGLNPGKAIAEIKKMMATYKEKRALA
Sequence of Complex II (Q9CZB0 30-169): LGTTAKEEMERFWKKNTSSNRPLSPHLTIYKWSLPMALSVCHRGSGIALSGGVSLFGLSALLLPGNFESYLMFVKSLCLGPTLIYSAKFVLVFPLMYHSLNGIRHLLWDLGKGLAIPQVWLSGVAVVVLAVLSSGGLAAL
Sequence of Complex II (Q9CXV1 57-159): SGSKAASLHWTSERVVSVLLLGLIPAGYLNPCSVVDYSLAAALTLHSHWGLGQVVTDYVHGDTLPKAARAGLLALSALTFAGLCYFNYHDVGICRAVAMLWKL

HSC-2 cells = experiment: JC-1 analysis of mitochondrial membrane potential; format: cell-based, human; details: for cell population with mitochondrial transmembrane potential loss: 0.1 µM, untreated control about 8% at 8 h
Method: The mitochondrial membrane potential was measured based on the potential–dependent accumulation of the cationic JC-1 dye which results in a shift of fluorescence emission from green (∼525 nm) to red (∼590 nm) due to the formation of J-aggregates. Therefore, mitochondrial depolarization is indicated by a decrease in the red/green fluorescence intensity ratio. Briefly, cells were collected and suspended in 1 ml warm media at approximately 1×10^6 cell/ml. In a control tube, 1 µl of 50 mM CCCP was added and incubated at 37°C for 5 min. Then, 10 µl of 200 µM JC-1 was added into the cells and incubated at 37°C for 30 min. Cells were washed twice with warm PBS, resuspended in 500 µl of PBS and analyzed on a FACSCalibur flow cytometer using 488 nm excitation with 530/30 nm and 585/42 nm bandpass emission filters.
Meanwhile, the mitochondrial transmembrane potential loss was more prominent in HSC-2 cells treated with 5 at 0.1 µM. Approximately 21% (P<0.05) of the cell population was affected in the first hour and the percentage increased drastically to 34% in 8 h. For the untreated control cells, the population of depolarized cells at 8 h remained at approximately 8%. […] CCCP is an oxidative phosphorylation decoupling agent which acts as a positive control for the experiment.

[5] = test system: NCI-60 human tumor cell lines; experiment: NCI-60 screen, sulforhodamine B, whole panel; format: cell-based; details: overall value for the NCI-60 cell lines screen; for GI50: Homo sapiens
Method: NCI-60 cell panel screening was performed by the NCI/National Institutes of Health developmental therapeutics program (Bethesda, US). This platform allows the determination of growth inhibitory profiles of test compounds on 60 different human cancer cell lines, representing leukemia, melanoma and cancers of the lung, colon, central nervous system, ovary, breast, prostate, and renal subpanel. Sulforhodamine B assay was used to assess the cytotoxicity of test agents in a panel of 60 cell lines. Briefly, the human tumor cell lines of the cancer screening panel were grown in RPMI 1640 medium containing 5% FBS and 2 mM L-glutamine. For a typical screening experiment, cells were inoculated into 96 well microtiter plates in 100 µl at plating densities depending on the doubling time of individual cell lines. After cell inoculation, the microtiter plates are incubated at 37°C, 5% CO2 and 100% relative humidity for 24 h. Following incubation, aliquots of 100 µl of compound at different dilutions were added to the appropriate microtiter wells and were further incubated for 48 h. At the assay end-point, cells were fixed with trichloroacetic acid followed by Sulforhodamine B staining for cellular protein content. Sulforhodamine B absorbance was read at a wavelength of 515 nm as a measurement of cell density.

[6] = Solubility in aqueous media for treatment stock; format: physicochemical; details: reconstitution of treatment stock at 10 mM
Method: Compounds 3, 4 and 6 were synthesized to test if meso-replacement with 4-bromobenzene 3, 4-chlorobenzene 4 or 2-furyl 6 groups would affect the anticancer activity. In addition, the 4-iodobenzene 7 or 2-thiofuran meso substituents 8 and unsymmetrical piperidine/[…] amine substituents were synthesized and investigated. Rosamines 1–4 and 7 were not appreciably water-soluble so they were reconstituted in DMSO at 10 mM as treatment stock.

[7] = Body weight and adverse effects in treated mice; format: in vivo
Method: Tumor allografts were initiated by subcutaneous injection of 5×10^5 4T1 mouse mammary carcinoma in 0.1 ml RPMI 1640 media into the inguinal mammary fat-pads of mice. Tumor growth was monitored and treatments were initiated when tumors reached volume of approximately 200 mm^3. To assess the tumor growth inhibition, 4T1 tumor bearing mice were randomized into groups with at least eight animals per group. […] For control group, normal saline was given. The animal weights and tumor volume were measured three times weekly for 14 d. The tumor volume was calculated using the equation: (length×width^2)/2 and relative tumor volume (RTV) was calculated for every tumor volume at any given time (VT) against the tumor volume at staging day (V0) using the equation: VT/V0. The RTV – time profile for each group was plotted and tumor growth delay in attaining a specified number of doublings compared to control was determined, [19]. Results were expressed as median ±95% confidence interval (n = 8).
Meanwhile, the terminal percent test/control (% T/C) values calculated at the end of experiment were 72% and 66% in mice receiving 5 mg/kg and 3 mg/kg (q2d×6) respectively. The antitumor efficacy of 5 is minimal as the % T/C attained after treatment had ended is not ≤40% activity, the minimal rating for a compound to be considered active. […]

[8] = test system: 4T1 mouse mammary carcinoma; experiment: In vivo antitumor efficacy, tumor allograft; parameters: species or system female BALB/c mice; details: for median day for 4T1 tumor in attaining two-doubling growth (RTV = 4): control approximately 9 days; for terminal percent test/control (% T/C): end of experiment (day 14)
Method: All animal experiments were conducted in accordance with protocols reviewed and approved by Dr. Haji Azizuddin Bin Haji Kamaruddin, Laboratory Animal Centre (LAC) Animal Care and Use Committee of Faculty of Medicine, University of Malaya (reference number FAR/14/07/2010/LSH). Female BALB/c mice aged between 6–8 weeks with a minimum weight of 17 g were maintained in a controlled environment of 12 h light-dark cycles with free access to food (standard pellet diet purchased from Altromin International, Lage, Germany) and purified water. Female mice were used because the hormonal environment essential for development of implanted 4TI mouse mammary carcinoma would be present.
Tumor allografts were initiated by subcutaneous injection of 5×10^5 4T1 mouse mammary carcinoma in 0.1 ml RPMI 1640 media into the inguinal mammary fat-pads of mice. Tumor growth was monitored and treatments were initiated when tumors reached volume of approximately 200 mm^3. To assess the tumor growth inhibition, 4T1 tumor bearing mice were randomized into groups with at least eight animals per group. Compound 5 was prepared at 0.3 mg/ml in normal saline and treatment was administered intravenously at 5 mg/kg on staging day or 3 mg/kg every other day for six treatments (q2dx6). For control group, normal saline was given. The animal weights and tumor volume were measured three times weekly for 14 d. The tumor volume was calculated using the equation: (length×width^2)/2 and relative tumor volume (RTV) was calculated for every tumor volume at any given time (VT) against the tumor volume at staging day (V0) using the equation: VT/V0. The RTV – time profile for each group was plotted and tumor growth delay in attaining a specified number of doublings compared to control was determined, [19]. Results were expressed as median ±95% confidence interval (n = 8).

Row | SMILES | IC50 [1] | IC50 [2] | IC50 (MCF-7 breast carcinoma) | IC50 [3] | IC50 (HCT-116 colon carcinoma) | water solubility [6] | other results
1 | c1ccc(-c2c3ccc(=[N+]4CCCCC4)cc-3oc3cc(N4CCCCC4)ccc23)cc1 [Rosamine 1] | 630 nM | 90 nM | 1200 ± 700 nM | 610 ± 70 nM | 600 ± 410 nM | – | –
2 | Ic1ccc(-c2c3ccc(=[N+]4CCOCC4)cc-3oc3cc(N4CCCCC4)ccc23)cc1 [Rosamine 7, Unsymmetrical 4-Iodophenyl Rosamine] | 290 nM | 220 ± 100 nM | 260 ± 70 nM | 440 ± 10 nM | 240 ± 70 nM | – | –
3 | Ic1ccc(-c2c3ccc(=[N+]4CCCCC4)cc-3oc3cc(N4CCCCC4)ccc23)cc1 [Rosamine 2] | 410 nM | 350 ± 50 nM | 590 ± 120 nM | 290 ± 30 nM | 390 ± 70 nM | – | IC50 (Complex I): > 10000 nM; IC50 (Complex IV): > 10000 nM; fold more active than phenyl substituted compound 1 [4]: 5 fold; IC50 (ATP synthase): 3900 ± 300 nM; IC50 Complex II activity (Complex II): did not reach 50% up to maximum concentrations studied; cell population with mitochondrial transmembrane potential loss (HSC-2 cells; 8 h): 19%; cell population with mitochondrial transmembrane potential loss (HSC-2 cells; within 1 h after treatment): 9%
4 | Clc1ccc(-c2c3ccc(=[N+]4CCCCC4)cc-3oc3cc(N4CCCCC4)ccc23)cc1 [Rosamine 4, 4-Chlorobenzene Rosamine] | 180 nM | 90 ± 10 nM | 150 ± 40 nM | 250 ± 10 nM | 220 ± 140 nM | – | GI50 [5]: 100 nM; Log10GI50 [5]: −7
5 | N#CC(C#N)=NNc1cccc(Cl)c1 [CCCP, Carbonyl cyanide 3-chlorophenylhydrazone, reference compound] | – | – | – | – | – | – | cell population with loss of membrane potential (HSC-2 cells; 5 µM for 5 min, positive control): 70%
6 | Brc1ccc(-c2c3ccc(=[N+]4CCCCC4)cc-3oc3cc(N4CCCCC4)ccc23)cc1 [Rosamine 3, 4-Bromobenzene Rosamine] | 280 nM | 190 ± 110 nM | 290 ± 40 nM | 340 nM | 300 ± 80 nM | – | –
7 | c1csc(-c2c3ccc(=[N+]4CCCCC4)cc-3oc3cc(N4CCCCC4)ccc23)c1 [Rosamine 5] | 110 nM | 90 ± 10 nM | 180 ± 20 nM | 100 nM | 70 ± 20 nM | readily solubilized in aqueous media | IC50 (Complex I): > 10000 nM; IC50 (Complex IV): > 10000 nM; fold more active than phenyl substituted compound 1 [4]: 5 fold; IC50 (ATP synthase): 3000 ± 800 nM; body weight loss ([7]; 4T1 tumor bearing mice, 5 mg/kg or 3 mg/kg (q2d×6) i.v., 14 d): ≤ 15%; adverse effects ([7]; mice, 10 mg/kg dose): unacceptable adverse effects such as weight loss, diarrhea and sudden death; IC50 (Complex II): 9600 ± 100 nM; cell population with mitochondrial transmembrane potential loss (HSC-2 cells; 8 h): 34%; cell population with mitochondrial transmembrane potential loss (HSC-2 cells; within 1 h after treatment): Approximately 21%; median day for 4T1 tumor in attaining two-doubling growth (RTV = 4) ([8]; 3 mg/kg i.v. q2d×6): ~13 days; terminal percent test/control (% T/C) ([8]; 3 mg/kg i.v. q2d×6): 66%; two-doubling tumor growth delay (T-C)/C ([8]; 5 mg/kg single bolus i.v.): 22%; median day for 4T1 tumor in attaining two-doubling growth (RTV = 4) ([8]; 5 mg/kg single bolus i.v.): ~11 days; terminal percent test/control (% T/C) ([8]; 5 mg/kg single bolus i.v.): 72%; GI50 [5]: 100 nM; Log10GI50 [5]: −7
8 | c1csc(-c2c3ccc(=[N+]4CCOCC4)cc-3oc3cc(N4CCCCC4)ccc23)c1 [Rosamine 8, Unsymmetrical Thiofuryl Rosamine] | 250 nM | 220 ± 110 nM | 170 ± 100 nM | 530 nM | 70 ± 20 nM | readily solubilized in aqueous media | –
9 | c1coc(-c2c3ccc(=[N+]4CCCCC4)cc-3oc3cc(N4CCCCC4)ccc23)c1 [Rosamine 6, Furan Rosamine] | 200 nM | 90 nM | 310 ± 140 nM | 310 ± 80 nM | 100 ± 30 nM | readily solubilized in aqueous media | –
